Laboratory results from patent publication US9526717B2, “Composition for treating immune diseases containing daurinol compound as active ingredient” (THE CATHOLIC UNIVERSITY OF KOREA INDUSTRY-ACADEMIC …, priority 2013, dated 2016).

Experiments:
[1] = system: mouse model with collagen induced arthritis (CIA); test: Measurement of IgG, IgG1 and IgG2a in the serum of CIA mice by sandwich ELISA; format: in vivo
[2] = system: splenocytes of an animal model with obesity-derived rheumatoid arthritis; test: IL-17 ELISA in splenocytes of animal model with obesity arthritis; format: cell-based; settings: daurinol 1 μM and 5 μM, anti-CD3 0.5 μg/mL
Experimental: The splenocytes of an animal model with obesity-derived rheumatoid arthritis were treated with daurinol (1 μM and 5 μM) and anti-CD3 (0.5 μg/mL), and IL-17, the inflammatory cytokine expressed thereafter, was evaluated via ELISA assay.

[3] = system: splenocytes of an animal model with obesity arthritis; test: Th17/Treg activity by flow cytometry in splenocytes of animal model with obesity arthritis; format: cell-based; settings: daurinol 1 μM, anti-CD3 0.5 μg/mL, 3 days
Experimental: Additionally, for the confirmation of controlling the activity of Th17/Treg cells, the splenocytes of an animal model with obesity arthritis were treated with daurinol (1 μM) and anti-CD3 (0.5 μg/mL) and cultured for 3 days, and the activity of Th17/Treg cells controlled by daurinol were evaluated via flow cytometry.

[4] = system: animal model with graft versus host disease; test: Therapeutic effect in animal model with graft versus host disease (GVHD); format: in vivo, mouse; settings: GVHD Balb/c recipient mice, daurinol 20 mg/kg 3 times a week, total of 9 times, vs GVHD control group
Source text: In order to confirm whether daurinol can be actually applied to the treatment of a different immune disease, the therapeutic effects of daurinol was examined using an animal model with graft versus host disease. First, for the construction of an animal with graft versus host disease, a recipient mouse, Balb/c(H-2k/d), was exposed to total body irradiation (TBI) (800 cGy). Then, hematopoietic stem cells and splenocytes were isolated from the femur and the tibia of the donor mouse and the hematopoietic stem cells (5×10^6 cells) and the splenocytes (1×10^6 cells) were transplanted to a recipient mouse Balb/c(H-2k/d). After the transplantation, daurinol (20 mg/kg of weight) was injected 3 times a week for a total of 9 times, and in particular, daurinol was used after dissolving in a mixed solvent (DMSO:Crernophor EL:DW=1:1:8). The experiment was performed and analyzed for the experimental groups in which each group consisted of five mice.

[5] = system: animal model with inflammatory bowel disease (IBD); test: H&E staining and TNF-α expression of large intestine tissues in IBD animal model; format: in vivo, mouse; settings: DSS-induced IBD mice, daurinol treated
Source text: For the confirmation of the effect of the daurinol compound of the present invention on the treatment of inflammatory bowel disease, the present inventors first constructed an animal model with induced inflammatory bowel disease. For the experimental model, C57BL/6(H-2kb) mice were used. For the construction of an animal model with induced inflammatory bowel disease, the mice were fed with 3.5% dextran sulfate sodium (DSS) and water for a week, thereby preparing an animal model with induced inflammatory bowel disease. The present inventors divided the experimental animals into a normal control group, a group of an animal model with induced inflammatory bowel disease, and a group of an animal model with induced inflammatory bowel disease treated with daurinol or a TNF-α inhibitor, and the group treated with daurinol was administered orally and intrarectally with daurinol (20 mg/kg) from the 4th day after the induction with the disease. Additionally, for the confirmation of the histological findings of the tissues in the large intestine and the expression of inflammatory cytokines, a hematoxylin and eosin (H&E) staining was performed to examine whether the damage of the tissues in the large intestine was reduced by the daurinol treatment.

VEGF = VEGF expression in human large intestine cell line HT-29; format: cell-based
[6] = system: mouse with induced inflammatory bowel disease (IBD); test: Antibodies expressed in the sera of IBD animal model; format: in vivo; settings: IBD mice treated with daurinol
Source text: For the confirmation of the effect of the daurinol compound of the present invention on the treatment of inflammatory bowel disease, the present inventors first constructed an animal model with induced inflammatory bowel disease. For the experimental model, C57BL/6(H-2kb) mice were used. For the construction of an animal model with induced inflammatory bowel disease, the mice were fed with 3.5% dextran sulfate sodium (DSS) and water for a week, thereby preparing an animal model with induced inflammatory bowel disease.
The present inventors divided the experimental animals into a normal control group, a group of an animal model with induced inflammatory bowel disease, and a group of an animal model with induced inflammatory bowel disease treated with daurinol or a TNF-α inhibitor, and the group treated with daurinol was administered orally and intrarectally with daurinol (20 mg/kg) from the 4th day after the induction with the disease.
Sera were isolated from a mouse with induced inflammatory bowel disease (IBD), and mice treated with daurinol and TNF-α inhibitor, respectively. The levels of IL-17, IFNγ, IL-6, and the like, which are inflammatory cytokines, in the isolated sera were measured by ELISA assay.
Accordingly, since daurinol can reduce not only the expression of the inflammatory cytokines but also the formation of antibodies in an animal model with inflammatory bowel disease, daurinol can inhibit and control the immune response to autoantibodies and the B cell-related inflammation responses.

[7] = system: splenocytes of an animal model with lupus; test: IgG antibody formation in splenocytes of animal model with lupus (ELISA); format: cell-based; settings: daurinol 1 μM and 5 μM, LPS 100 ng/mL, three days
Experimental: First, regarding the effect of controlling the autoantibody formation, the splenocytes of an animal model with lupus were treated with daurinol (1 μM and 5 μM) and LPS (100 ng/mL) for three days and the levels of IgG antibodies expressed thereof were evaluated by ELISA assay.

[8] = system: splenocytes of the animal model with lupus; test: IL-17 level in splenocytes of animal model with lupus (ELISA); format: cell-based; settings: daurinol 1 μM and 5 μM, anti-CD3 0.5 μg/mL or LPS 100 ng/mL, three days
Experimental: Additionally, for the confirmation of the effect of controlling the formation of inflammatory cytokines, the splenocytes of the animal model with lupus were treated with daurinol (1 μM and 5 μM) and anti-CD3 (0.5 μg/mL) or LPS (100 ng/mL) for three days and the levels of IL-17 and TNF-α inflammatory cytokines were evaluated by ELISA assay.

[9] = system: splenocytes of an animal model with lupus; test: Th17/Treg activity by flow cytometry in splenocytes of animal model with lupus; format: cell-based; settings: daurinol 1 μM, anti-CD3 0.5 μg/mL, three days
Experimental: Finally, for the confirmation of the controlling the activity of Th17/Treg cells, the splenocytes of an animal model with lupus were culture for three days after treating with daurinol (1 μM) and anti-CD3 (0.5 μg/mL), and the activity of Th17/Treg cells being controlled by daurinol was evaluated by flow cytometry.

[10] = arthritis animals, daurinol administration

COc1cc2c(-c3ccc4c(c3)OCO4)c3c(cc2cc1O)COC3=O [daurinol]
expression of IgG in the serum ([1]; CIA mouse, three weeks after daurinol injection, 20 mg/kg i.v.): effectively reduced | IgG1 in the serum [1, 10]: significant decrease | IgG2a in the serum [1, 10]: significant decrease | expression of IL-17 (ELISA) [2]: inhibits the expression of IL-17 in a dose-dependent manner | activity of Foxp3+ Treg cells (flow cytometry) [3]: induced the activity of Foxp3+ Treg cells | expression of IL-17 (Th17, flow cytometry) [3]: significantly inhibited the expression of IL-17 | degree of disease [4]: improvement in the degree of disease | degree of survival [4]: maintenance of the degree of survival for 30 days | damage of the tissues in the large intestine (H&E staining) [5]: decrease in the intestinal tissue damage | expression of TNF-α in large intestine tissues [5]: significantly inhibits | activity of VEGF, analysis in terms of inhibition (%) (VEGF): significantly inhibits the activity of VEGF | inhibitory effect against the VEGF expression, compared to comparators (VEGF): greater inhibitory effect against the VEGF expression compared to those of TNF-α inhibitor and merformin | level of IgG1 antibodies in sera [6]: reduced the levels | level of IgG2 antibodies in sera [6]: reduced the levels | level of IgG3 antibodies in sera [6]: reduced the levels | level of IgG antibodies in sera [6]: reduced the levels | formation of IgG antibodies (ELISA) [7]: inhibited the formation of IgG antibodies in a dose-dependent manner | expression of IL-17 (ELISA) [8]: inhibited the expression of IL-17 and TNF-α in a dose-dependent manner | Th17 activity (flow cytometry) [9]: inhibit the Th17 activity | activity of Foxp3+ Treg cells (flow cytometry) [9]: induce the activity of Foxp3+ Treg cells
